From US11999794B2, “Human mesothelin chimeric antigen receptors and uses thereof” (Novartis AG, priority 2013, dated 2024)
Where two headings read alike, the source gives them in different places. Marks after values point to notes of the source that are not given here.

What was measured:
[1] = system: H1N1 A/California/07/2009, H3N2 A/Victoria/210/2009, B/Brisbane/60/2008; assay: Serologic response to 2012 seasonal influenza vaccine (HI GMT ratio, primary endpoint); assay type: in vivo, human; conditions: for primary endpoint (≥1.2-fold GMT increase relative to placebo in 2 of 3 strains): ITT population
Experimental: From December 2011 to April 2012, 218 elderly volunteers were enrolled in a randomized, observer-blind, placebo-controlled trial. The subjects were randomized to treatment arms using a validated automated randomization system with a ratio of RAD001 to placebo of 5:2 in each treatment arm. The treatment arms were: • RAD001 0.5 mg daily or placebo • RAD001 5 mg weekly or placebo • RAD001 20 mg weekly or placebo
The trial was observer-blind because the placebo in the RAD001 0.5 mg daily and 20 mg weekly cohorts differed slightly from the RAD001 tablets in those cohorts. […] The treatment duration for all cohorts was 6 weeks during which time subjects underwent safety evaluations in the clinic every 2 weeks. After subjects had been dosed for 4 weeks, RAD001 steady state levels were measured pre-dose and at one hour post dose. After completing the 6 week course of study drug, subjects were given a 2 week drug free break to reverse any possible RAD001-induced immunosuppression, and then were given a 2012 seasonal influenza vaccination (Agrippal®, Novartis Vaccines and Diagnostics, Siena, Italy) containing the strains H1N1 A/California/07/2009, H3N2 A/Victoria/210/2009, B/Brisbane/60/2008. Four weeks after influenza vaccination, subjects had serum collected for influenza titer measurements. Antibody titers to the 3 influenza vaccine strains as well as to 2 heterologous strains (A/H1N1 strain A/New Jersey/8/76 and A/H3N2 strain A/Victoria/361/11) were measured by standard hemagglutination inhibition assay (Kendal, A P et al. (1982) Concepts and procedures for laboratory-based influenza surveillance. Atlanta: Centers for Disease Control and Prevention B17-B35). Levels of IgG and IgM specific for the A/H1N1/California/07/2009 were measured in serum samples taken before and 4 weeks after influenza vaccination as described previously (Spensieri, F. et al. (2013) Proc. Natl. Acad. Sci. USA 110:14330-14335). Results were expressed as fluorescence intensity.
The primary analysis of geometric mean titer ratios was done using a normal Bayesian regression model with non-informative priors. This model was fitted to each antibody titer on the log scale. The primary outcome in each model was the Day 84 measurement. The Day 63 measurement was included in the outcome vector. The model fitted using SAS 9.2 proc mixed with the prior statement. The covariance structure of the matrix was considered as unstructured (option type=UN). A flat prior was used. For the secondary analysis of seroconversion rates, logistic regression was used.
The ability of RAD001 to improve immune function in elderly volunteers was evaluated by measuring the serologic response to the 2012 seasonal influenza vaccine. […]

[2] = system: A/H1N1 strain A/New Jersey/8/76 and A/H3N2 strain A/Victoria/361/11; parameters: species or system human; conditions: in vivo
[3] = system: PD-1; assay: Immunophenotyping of PBMC (FACS); assay type: in vivo, human; conditions: for decrease in PD-1 positive CD4 T cells compared to placebo / decrease in PD-1 positive CD8 T cells compared to placebo: adjusted for baseline
[4] = system: P70 S6K; assay: Percent inhibition of P70 S6K activity in HeLa cells in vitro; conditions: concentrations from 30 pM to 4 nM
[5] = system: A/H3N2 strain A/Victoria/361/11; assay: HI titers and seroconversion, heterologous strain; assay type: in vivo, human; conditions: for Percentage of subjects who seroconvert to heterologous strain A/H3N2 A/Victoria/361/11: 4 weeks after seasonal influenza vaccination, odds ratio vs placebo p < 0.05
[6] = cited from earlier work
[7] = Size exclusion chromatography (oligomerization state of expressed scFvs); assay type: physicochemical; conditions: purified scFv
Experimental: Size exclusion chromatography was performed to determine the oligomerization states of the expressed scFvs. 25 μg each was injected onto a TSKGel Super SW3000 4.6 mm×300 mm column (Tosoh Bioscience) heated to 35° C. The scFvs were eluted at 0.3 mL/min in 750 mM arginine, 1 mM EDTA, 20 mM sodium phosphate, 250 mM sodium chloride, pH 7.2; the UV absorbance was monitored at 280 nm.

Molecule | primary endpoint (≥1.2-fold GMT increase relative to placebo in 2 of 3 strains) ([1]; 0.5 mg daily or 5 mg weekly) | primary endpoint (≥1.2-fold GMT increase relative to placebo in 2 of 3 strains) ([1]; 20 mg weekly) | increase in titers in subjects with low baseline influenza titers (≤1:40) ([1]; compared with the ITT population) | RAD001 concentration versus increase in titer ([1]; concentration 1 hour post dose after 4 weeks) | increase in HI GMT ratios for the heterologous strains [2] | seroconversion rates for the heterologous strains [2] | percentage of PD-1 positive CD4 and CD8 cells compared to placebo cohorts ([3]; in vivo) | decrease in PD-1 positive CD4 T cells compared to placebo ([3]; week 6, pooled cohort (n=84)) [%] | decrease in PD-1 positive CD8 T cells compared to placebo ([3]; week 6, pooled cohort (n=84)) [%] | decrease in PD-1 positive CD4 T cells compared to placebo ([3]; week 12, pooled cohort) [%] | decrease in PD-1 positive CD8 T cells compared to placebo ([3]; week 12, pooled cohort) [%] | change in PD-1-positive CD8 T cells compared to placebo ([3]; week 12, 0.5 mg/Day, 5 mg/Week and 20 mg/Week cohorts) | effect on P70 S6K activity in cell lines [4] | increase in seroconversion rate, H3N2 heterologous strain ([5]; 5 and 20 mg weekly dosing cohorts) | Percentage of subjects who seroconvert to heterologous strain A/H3N2 A/Victoria/361/11 ([5]; RAD001 5 mg weekly) [%*] | Percentage of subjects who seroconvert to heterologous strain A/H3N2 A/Victoria/361/11 ([5]; RAD001 20 mg weekly) [% *] | H3N2 seroconversion rate, heterologous strain ([5]; pooled RAD001 cohorts, p=0.007 vs placebo) [%] | trough level ([6]; 10 mg daily oncology dosing regimen) | trough level ([6]; 0.75-1.5 mg bid transplant dosing regimen) | % Monomer (SEC) [7] [%]
CO[C@H]1C[C@@H]2CC[C@@H](C)[C@@](O)(O2)C(=O)C(=O)N2CCCC[C@H]2C(=O)O[C@H]([C@H](C)C[C@@H]2CC[C@@H](OCCO)[C@H](OC)C2)CC(=O)[C@H](C)/C=C(\C)[C@@H](O)[C@@H](OC)C(=O)[C@H](C)C[C@H](C)/C=C/C=C/C=C/1C [RAD001, (1R,9S,12S,15R,16E,18R,19R,21R,23 S,24E,26E,28E,30S,32S,35R)-1,18-dihydroxy-12-{(1R)-2-[(1 S,3R,4R)-4-(2-hydroxyethoxy)-3-methoxycyclohexyl]-1-methylethyl}-19,30-dimethoxy-15,17,21,23,29,35-hexamethyl-11,36-dioxa-4-aza-tricyclo[30.3.1.04,9]hexatriaconta-16,24,26,28-tetraene-2,3,10,14,20-pentaone] | met the GMT primary endpoint | but not higher dose (20 mg weekly) cohort met the primary endpoint | greater RAD001-associated increase in titers | inverse exposure/response relationship | higher in the RAD001 as compared to placebo cohorts | higher in the RAD001 as compared to placebo cohorts | lower in the RAD001 as compared to placebo cohorts | 30.2 | 37.4 | 32.7 | 41.4 | −43.3-−38.5% | partially inhibited P70 S6K activity | statistically significant | 39 | 40 | 39 | approximately 20 ng/ml | approximately 3 ng/ml | 
M5: human anti-mesothelin scFv SEQ ID NO: 43; full CAR SEQ ID NO: 67 (protein) scFv: QVQLVQSGAEVEKPGASVKVSCKASGYTFTDYYMHWVRQAPGQGLEWMGWINPNSGGTNYAQKFQGRVTMTRDTSISTAYMELSRLRSDDTAVYYCASGWDFDYWGQGTLVTVSSGGGGSGGGGSGGGGSGGGGSDIVMTQSPSSLSASVGDRVTITCRASQSIRYYLSWYQQKPGKAPKLLIYTASILQNGVPSRFSGSGSGTDFTLTISSLQPEDFATYYCLQTYTTPDFGPGTKVEIK |  |  |  |  |  |  |  |  |  |  |  |  |  |  |  |  |  |  |  | 82
